According to patent US12295970B2, “Imidazoquinoline compounds and prodrugs thereof” (UNIVERSITY OF KANSAS, priority 2019, dated 2025):

Key:
Format in all cases: cell-based
hTLR7 = target: T1, hTLR7 (Homo sapiens, UniProt Q9NYK1); test: SEAP reporter assay for hTLR-7 activity (HEK-Blue hTLR7 cells); settings: ± SD; hTLR7 transfected HEK-Blue cells, Null subtracted; three independent measurements; 12 hours; read-out: EC50 TLR7
T1 construct: host or cells: HEK293 (HEK-Blue hTLR7)
T1 sequence (Q9NYK1 27-1049): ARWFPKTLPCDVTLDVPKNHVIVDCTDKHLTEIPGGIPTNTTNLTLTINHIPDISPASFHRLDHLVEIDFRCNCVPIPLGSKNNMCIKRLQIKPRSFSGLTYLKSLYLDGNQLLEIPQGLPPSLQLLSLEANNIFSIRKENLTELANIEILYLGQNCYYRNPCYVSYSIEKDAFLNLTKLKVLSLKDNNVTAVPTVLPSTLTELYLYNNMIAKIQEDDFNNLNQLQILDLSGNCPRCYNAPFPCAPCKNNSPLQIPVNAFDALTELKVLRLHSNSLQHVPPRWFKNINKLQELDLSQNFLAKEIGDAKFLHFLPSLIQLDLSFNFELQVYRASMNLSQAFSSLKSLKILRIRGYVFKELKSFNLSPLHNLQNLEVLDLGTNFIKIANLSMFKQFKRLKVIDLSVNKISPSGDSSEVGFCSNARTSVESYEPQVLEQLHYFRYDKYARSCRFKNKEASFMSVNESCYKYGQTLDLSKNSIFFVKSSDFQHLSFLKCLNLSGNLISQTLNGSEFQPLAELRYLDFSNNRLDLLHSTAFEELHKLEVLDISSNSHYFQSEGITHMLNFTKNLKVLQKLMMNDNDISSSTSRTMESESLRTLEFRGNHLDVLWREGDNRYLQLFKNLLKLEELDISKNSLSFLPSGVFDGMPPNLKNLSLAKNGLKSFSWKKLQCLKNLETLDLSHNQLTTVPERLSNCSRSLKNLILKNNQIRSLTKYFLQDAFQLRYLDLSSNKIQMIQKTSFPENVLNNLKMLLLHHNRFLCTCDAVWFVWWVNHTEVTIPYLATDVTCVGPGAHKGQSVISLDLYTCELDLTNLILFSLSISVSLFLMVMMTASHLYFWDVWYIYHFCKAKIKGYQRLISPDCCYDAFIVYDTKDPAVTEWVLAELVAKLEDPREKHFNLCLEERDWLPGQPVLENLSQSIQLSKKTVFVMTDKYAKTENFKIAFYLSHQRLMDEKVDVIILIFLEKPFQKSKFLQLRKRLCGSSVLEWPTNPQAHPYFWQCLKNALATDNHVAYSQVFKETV
Experimental: (§1) TLR activation induces NF-κB production and subsequent SEAP secretion, which is measured using HEK-Detection media (InvivoGen) containing a colorimetric substrate for SEAP (UV-Vis, 637 nm).
(§2) The experiments followed manufacturer protocol as follows: SEAP levels were measured via absorbance at 637 nm using HEK-Blue Detection cell culture medium (InvivoGen), which contains a SEAP-specific colorimetric substrate. Compound stock solutions were first diluted in sterile DMSO at a concentration of 10 mM. Lower concentrations were prepared by serial dilution of the initial 10 mM stock samples into sterile DMSO and these solutions (22 μL) were subsequently diluted into sterile H2O (198 μL) using a BioTek Precision XS pipetting system. HEK-Blue hTLR7, HEK-Blue hTLR8, Null 1−k, and Null 1 cell suspensions in sterile HEK-Blue Detection medium were prepared at a density of 220,000 cells per mL. Clear bottom, 96-well tissue culture treated plates (Corning) were seeded with hTLR7 and Null 1−k or hTLR8 and Null 1 cell suspensions (180 μL/well), after which 20 μL of the various sample concentrations in 10% v/v DMSO/H2O were added (20 μL) in quadruplicate wells to yield the desired testing concentration in 1% v/v DMSO cell suspension. Plates were incubated at 37° C. and 5% CO2 in the dark. Absorbance measurements were taken at 637 nm at 12 hours, 4 replicates per concentration point, per cell line (hTLR7, hTLR8, Null 1−k, Null 1). Three independent measurements on different days were performed for each analog.
(§3) Corresponding well absorbance values for each concentration tested were averaged with respect to days tested, and the average relative NF-κB induction (UV-Vis, 637 nm) of the null cell lines (Null 1-k or Null 1) were subtracted from the respective average TLR expressing cell line (hTLR7 or hTLR8) absorbance averages. […] The three independent, normalized averages for each analog were then pooled, and the data was fit using the Hill-Slope model (GraphPad Prism v7.0) using the non-linear fit from the [Agonist] vs. response—Variable Slope (four parameters) with a hill slope constrained to less than 3.

hTLR8 = target: T2, hTLR8 (Homo sapiens, UniProt Q9NR97); test: SEAP reporter assay for hTLR-8 activity (HEK-Blue hTLR8 cells); settings: ± SD; hTLR8 transfected HEK-Blue cells, Null subtracted; three independent measurements; 12 hours; >100 = no activity observed at 100 μM; read-out: EC50 TLR8
T2 construct: host or cells: HEK293 (HEK-Blue hTLR8)
T2 sequence (Q9NR97 27-1041): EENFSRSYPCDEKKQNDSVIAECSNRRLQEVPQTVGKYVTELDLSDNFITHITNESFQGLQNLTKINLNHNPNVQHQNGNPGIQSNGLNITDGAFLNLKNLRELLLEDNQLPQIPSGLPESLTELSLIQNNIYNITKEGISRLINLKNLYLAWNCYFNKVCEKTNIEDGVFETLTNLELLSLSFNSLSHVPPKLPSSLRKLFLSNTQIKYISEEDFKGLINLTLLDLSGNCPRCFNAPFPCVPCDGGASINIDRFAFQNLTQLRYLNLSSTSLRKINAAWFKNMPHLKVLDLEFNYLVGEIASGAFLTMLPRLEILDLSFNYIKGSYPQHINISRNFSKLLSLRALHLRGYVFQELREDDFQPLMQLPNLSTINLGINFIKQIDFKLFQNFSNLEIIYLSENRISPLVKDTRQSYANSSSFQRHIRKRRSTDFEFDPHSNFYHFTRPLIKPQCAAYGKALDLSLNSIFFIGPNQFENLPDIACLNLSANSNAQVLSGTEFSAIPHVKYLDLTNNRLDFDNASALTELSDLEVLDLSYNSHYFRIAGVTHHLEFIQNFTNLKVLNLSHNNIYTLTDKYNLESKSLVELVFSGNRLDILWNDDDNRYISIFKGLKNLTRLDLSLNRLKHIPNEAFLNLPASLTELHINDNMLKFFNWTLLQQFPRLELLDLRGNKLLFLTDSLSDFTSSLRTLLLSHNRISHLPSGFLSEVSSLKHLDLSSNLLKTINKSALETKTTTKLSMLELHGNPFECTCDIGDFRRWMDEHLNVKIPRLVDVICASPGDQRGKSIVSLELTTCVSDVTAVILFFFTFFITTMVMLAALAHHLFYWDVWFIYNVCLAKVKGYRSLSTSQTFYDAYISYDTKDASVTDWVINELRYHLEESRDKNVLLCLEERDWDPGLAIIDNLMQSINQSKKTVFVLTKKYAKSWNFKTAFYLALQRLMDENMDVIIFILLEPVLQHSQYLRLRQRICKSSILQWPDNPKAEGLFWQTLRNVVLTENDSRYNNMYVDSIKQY
Experimental: as §1, §2, §3

[1] = test system: canine peripheral blood mononuclear cells (cPBMCs); test: Cytokine production in canine PBMCs by ELISA (Example 2); settings: ± SD, 20 μM, 29 hours, ELISA, triplicate
Experimental: The imidazoquinolines were further screened for cytokine production in canine peripheral blood mononuclear cells (cPBMCs). […] TNFα and IL-12 were chosen as they are typically seen in a Th-1 cytokine response.
Peripheral blood from a healthy canine donor was obtained with appropriate informed consent of the owner and under approved institutional guidelines. Blood (8 mL per tube) was drawn via sterile venipuncture into a BD Vacutainer cell preparation tube containing sodium heparin (BD Biosciences). PBMCs were isolated within one hour following procurement by density gradient centrifugation according to the manufacturer protocol and resuspended to 2.22×10^6 cells/mL in sterile RPMI 1640 medium with L-glutamine (Gibco) supplemented with 100 U/mL penicillin, 100 μg/mL streptomycin (Corning) and 10% (v/v) heat-inactivated Fetalgro (RMBIO). Corning 3917, 96-well tissue culture treated plates were seeded with the PBMC suspension (180 μL/well), 20 μL of the serially diluted TLR agonists were added in triplicate to yield the desired concentrations in a 1% (v/v) DMSO cell suspension. Cells were incubated at 37° C. in 5% CO2 for 9 hours (FIGS. 3A-3D) or 29 hours (Table 2) after which supernatants were removed and frozen at −80° C. Cytokine secretion levels were measured by ELISA (Duoset, R&D Systems) according to the manufacturer protocol. Samples and standards (n=3) were thawed and plated onto a Maxisorp flat-bottom, 384-well plate (Thermo Scientific) using a BioTek Precision XS pipetting system. Cytokine concentrations were determined by a hyperbolic or four-parameter logistic non-linear regression of the recombinant standards and subsequent interpolation using Graphpad Prism 7.0.

human TLR7 (hTLR7) = target: T3, human TLR7 (hTLR7) (Homo sapiens, UniProt Q9NYK1); test: In vitro TLR7 activity assay (HEK-Blue hTLR7, QUANTI-Blue, Example 3); settings: 16 h incubation; Null 1-k subtracted
T3 construct: host or cells: HEK-293 (HEK-Blue hTLR7)
T3 sequence (Q9NYK1 27-1049): T1 sequence (Q9NYK1 27-1049)
Experimental: TLR agonist activity was measured in a dose-response study using reporter cell lines expressing the human TLR7 (hTLR7). […] The hTLR7 activity of R848-Toco, the formulation and its components were assessed using HEK-293 cells co-transfected with the hTLR7 gene and an inducible SEAP reporter gene along with the corresponding null control line (HEK-Blue™ hTLR7 and Null-1k cells, Invivogen). Cells were maintained in DMEM media with selective antibiotics according to the manufacturer protocol.^26 HEK-Blue™ cells were seeded into 96 well plates at a density of 220,000 cells/mL with 180 μL/well of culture medium. Stock solutions in DMSO were first serially diluted to seven concentrations (DMSO solutions further diluted into H2O). Each well was stimulated with 20 μL of agonists or agonist-free controls (equivalent concentration of HA-Toco, D-α-Tocopherol succinate, PBS or […] DMSO) at the determined final concentrations in 5 replicates. After 16 h of incubation at 37° C. in a 5% CO2 atmosphere, 20 μL of the supernatant from each well was sampled and spiked into 180 μL of QUANTI-Blue™ solution followed by incubation for 1 h at 37° C. Relative hTLR7 activity was then analyzed by UV-Vis at 637 nm using a microplate UV reader (SpectraMAX GeminiXS, Molecular Devices, San Jose, CA, USA). For each compound and concentration, a corresponding sample was applied to the HEK-Blue™ Null-1k cell line. The TLR7 agonist activity was determined after averaging across hTLR7 replications and subtracting the averaged Null response.
Activation levels were calculated as the difference between the average readings of the hTLR7 cell line and the Null 1-k cell line, to account for non-hTLR7 related induction of NF-κB. […] Therefore, this study confirmed that R848-Toco, formulated with HA-Toco as an emulsion, maintained its TLR agonist activity. […]

Row | SMILES | EC50 (hTLR7) | EC50 (hTLR8) | Cytokine IFNg [1] | Cytokine IL-2 [1] | Cytokine IL-6 [1] | Cytokine IL-10 [1] | Cytokine IL-12 [1] | Cytokine TNFa [1] | hTLR7 activation (NF-κB, in words) (human TLR7 (hTLR7))
1 | CCOCc1nc2c(N)nc3cc(Cl)ccc3c2n1CC(C)(C)O [Compound 9, 4-Amino-7-chloro-2-(ethoxymethyl)-1-(2-hydroxy-2-methylpropyl)-1H-imidazo[4,5-c]quinoline] | 630 ± 30 nM | 4900 ± 600 nM | 16 ± 2 pg/mL | 76 ± 59 pg/mL | 320 ± 76 pg/mL | 12 ± 3 pg/mL | 1900 ± 130 pg/mL | 70 ± 8 pg/mL | –
2 | CCCCc1nc2c(N)nc3cc(OC)ccc3c2n1CC(C)C [Compound 4, 4-Amino-2-butyl-7-methoxy-1-(2-methylpropyl)-1H-imidazo[4,5-c]quinoline] | 110 ± 10 nM | > 100000 nM | 0 pg/mL | 30 ± 29 pg/mL | 500 ± 140 pg/mL | 37 ± 13 pg/mL | 746 ± 130 pg/mL | 49 ± 9 pg/mL | –
3 | CCCCc1nc2c(N)nc3cc(Cl)ccc3c2n1CC(C)(C)O [Compound 8, 4-Amino-2-butyl-7-chloro-1-(2-hydroxy-2-methylpropyl)-1H-imidazo[4,5-c]quinoline] | 84 ± 7 nM | 1500 ± 200 nM | 13 ± 10 pg/mL | 55 ± 30 pg/mL | 230 ± 44 pg/mL | 7 ± 6 pg/mL | 1700 ± 330 pg/mL | 22 ± 4 pg/mL | –
4 | CCCCc1nc2c(N)nc3cc(Cl)ccc3c2n1CC(C)C [Compound 6, 4-Amino-2-butyl-7-chloro-1-(2-methylpropyl)-1H-imidazo[4,5-c]quinoline] | 300 ± 20 nM | > 100000 nM | 7 ± 1 pg/mL | 63 ± 44 pg/mL | 240 ± 67 pg/mL | 14 ± 4 pg/mL | 760 ± 50 pg/mL | 91 ± 20 pg/mL | –
5 | Cc1c(C)c2c(c(C)c1OC(=O)CCC(=O)O)CC[C@@](C)(CCC[C@H](C)CCC[C@H](C)CCCC(C)C)O2 [Toco-succinate, (+)-α-tocopherol succinate] | – | – | – | – | – | – | – | – | did not induce any significant activation
